Measurements reported in paper PMC7504677, “Impact of N-Alkylamino Substituents on Serotonin Receptor (5-HTR) Affinity and Phosphodiesterase 10A (PDE10A) Inhibition of Isoindole-1,3-dione Derivatives” (Molecules, 2020).

Legend:
[1] = tested on: SH-SY5Y human neuroblastoma cell-line; experiment: MTT cytotoxicity assay; assay type: cell-based; conditions: SHSY-5Y cells, 24 h, 0.1–100 µM
Method: (§1) The HePG2 human liver cancer cell-line, (ATCC® 59195™) and the SH-SY5Y human neuroblastoma cell-line (ATCC® CRL-2266™) were used in the study. The cells were cultured in standard conditions (37 °C, 5% CO2), in EMEM (HepG2 and SH-SY5Y), supplemented with 10% fetal bovine serum (FBS) (Gibco, Thermo Fisher Scientific, Waltham, MA. USA) and antibiotics (Lonza, Köln, Germany).
(§2) The MTT assay was used to determine the cytotoxic effects of the analyzed compounds. Cells were seeded at a density of 2 × 10^4 in 96-well plates. Following overnight culture, cells were then treated with increasing concentrations of compound 18 (0.1–100 µM) and incubated for 24 h. Following cell exposure for 24 h, 10 µL MTT reagent (Sigma Aldrich) was added to each well and, after 3 h of incubation (37 °C, 5% CO2), the medium was aspirated and the formazan produced in the cells appeared as dark crystals in the bottom of the wells. Next, Crystal DMSO was added to each well. Then, the optical density (OD) of each well was determined at 570 nm on a plate-reader (Spectra iD3, Molecular Devices, San Jose, CA, USA). The number of metabolically active and living cells is directly proportional to the absorbance of the samples. The results are presented in Figure 5 as the percentage of control ± SEM. Doxorubicin was used as reference standard (cytotoxic agent).

[2] = tested on: HePG2 human liver cancer cell-line; experiment: MTT cytotoxicity assay; assay type: cell-based; conditions: HepG2 cells, 24 h, 0.1–100 µM
Method: as §1, §2

CD-1 mice [3] = experiment: spontaneous locomotor activity; assay type: in vivo; conditions: for spontaneous locomotor activity: mean ± S.E.M.
Method: The experiments were performed on male CD-1 mice (in the accredited animal facility at the Jagiellonian University Medical College, Krakow, Poland), and mice were kept in groups of ten in Makrolon type 3 cages (dimensions 26.5 × 15 × 42 cm). The animals were kept in an environmentally controlled room (ambient temperature 22 ± 2 °C; relative humidity 50–60%; 12:12 light:dark cycle, lights on at 8:00). They were allowed to acclimatize with the environment for one week before commencement of the experiments. Standard laboratory food (Ssniff M-Z) and filtered water were freely available. All the experimental procedures were approved by the I Local Ethics Commission at the Jagiellonian University in Krakow (Approval Nos.: 125/2017, 123/2015, and 158/2017).
All the experiments were conducted in the light phase between 09.00 and 14.00 h. Each experimental group consisted of 7–10 animals per treatment dose. The animals were used only once.
Locomotor activity was recorded with an Opto M3 multi-channel activity monitor (MultiDevice Software v.1.3, Columbus Instruments, Columbus, OH, USA). The CD-1 mice were individually placed in plastic cages (22 × 12 × 13 cm) immediately after drug administration, and then ambulation was counted during 1 h with data recording every 10 min. The cages were cleaned up with 70% ethanol after each mouse.
Locomotor activity was recorded according to the method described above.
All compounds were injected at a volume of 10 mL/kg. Control animals received a vehicle injection according to the same schedule.

PDE10A = PDE10A (Homo sapiens, UniProt Q9Y233); experiment: luminescence PDE inhibition assay (PDElight HTS cAMP phosphodiesterase assay kit); assay type: biochemical
Method: Test and reference compounds were dissolved in dimethyl sulfoxide (DMSO) at a concentration of 1 mM and further diluted in assay buffer in order to obtain the final concentration of compounds: 10 µM and 3 µM, respectively. All reactions were carried out at 37 °C in white, half-area 96-well plates (Perkin Elmer, Waltham, MA, USA). The inhibition of PDE 10A enzyme was measured using the PDElight HTS cAMP phosphodiesterase assay kit (Lonza) according to the manufacturer’s recommendations. 2.5 U of PDE 10A enzyme was preincubated either with DMSO (vehicle control) or compound for 20 min before incubation with the substrate, cAMP (final concentration 1.25 µM), for 1 h. Then, PDELight AMP Detection Reagent was added. After 10 min incubation, the luminescence was measured in a multifunction plate reader (POLARstar Omega, BMG Labtech, Ortenberg, Germany).

5-HT1A receptor = target: T1, 5-HT1A receptor (Homo sapiens, UniProt P08908); experiment: radioligand binding assay, [3H]8-OH-DPAT; conditions: read-out: 5-HT1A 1 µM ± SEM (% of control specific binding)
T1 sequence (P08908 1-422): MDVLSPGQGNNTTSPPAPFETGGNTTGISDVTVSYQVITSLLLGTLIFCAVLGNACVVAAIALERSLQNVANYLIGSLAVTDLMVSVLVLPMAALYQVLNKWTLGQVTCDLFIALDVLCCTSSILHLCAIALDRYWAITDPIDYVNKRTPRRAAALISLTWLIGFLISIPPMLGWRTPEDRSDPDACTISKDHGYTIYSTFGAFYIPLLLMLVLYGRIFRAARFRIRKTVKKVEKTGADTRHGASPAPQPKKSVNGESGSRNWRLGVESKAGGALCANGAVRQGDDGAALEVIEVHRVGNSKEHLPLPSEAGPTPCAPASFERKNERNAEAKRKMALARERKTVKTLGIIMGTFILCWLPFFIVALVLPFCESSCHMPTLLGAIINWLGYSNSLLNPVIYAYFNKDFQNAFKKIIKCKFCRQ
Method: (§3) Briefly: binding experiments were conducted in 96-well microplates in a total final volume of 250 μL of appropriate buffers. Reaction mix included 50 μL solution of test compound, 50 μL of radioligand ([^3H]8-OH-DPAT for 5-HT1A, and [^3H]-LSD for 5-HT7, respectively) and 150 μL of diluted membranes (see description and Table S2 in Supporting Materials). Specific assay conditions for each receptor are described elsewhere. The radioactivity was measured in a MicroBeta2 scintillation counter (PerkinElmer, USA). Each compound was tested in the assay as duplicate samples at 1 µM final concentrations. Results were expressed as percent inhibition of specific binding.

5-HT2A receptor = target: T2, 5-HT2A receptor (Homo sapiens, UniProt P28223); experiment: CEREP screening, inhibition of control binding; conditions: CEREP Laboratories, read-out: percent of inhibition of the control binding for 5-HT2A
T2 construct: Cerep (protocol)

CD-1 mice [4] = experiment: d-amphetamine-induced hyperlocomotor activity; assay type: in vivo
Method: The experiments were performed on male CD-1 mice (in the accredited animal facility at the Jagiellonian University Medical College, Krakow, Poland), and mice were kept in groups of ten in Makrolon type 3 cages (dimensions 26.5 × 15 × 42 cm). The animals were kept in an environmentally controlled room (ambient temperature 22 ± 2 °C; relative humidity 50–60%; 12:12 light:dark cycle, lights on at 8:00). They were allowed to acclimatize with the environment for one week before commencement of the experiments. Standard laboratory food (Ssniff M-Z) and filtered water were freely available. All the experimental procedures were approved by the I Local Ethics Commission at the Jagiellonian University in Krakow (Approval Nos.: 125/2017, 123/2015, and 158/2017). All the experiments were conducted in the light phase between 09.00 and 14.00 h. Each experimental group consisted of 7–10 animals per treatment dose. The animals were used only once. Locomotor activity was recorded with an Opto M3 multi-channel activity monitor (MultiDevice Software v.1.3, Columbus Instruments, Columbus, OH, USA). The CD-1 mice were individually placed in plastic cages (22 × 12 × 13 cm) immediately after drug administration, and then ambulation was counted during 1 h with data recording every 10 min. The cages were cleaned up with 70% ethanol after each mouse. […] All compounds were injected at a volume of 10 mL/kg. Control animals received a vehicle injection according to the same schedule.

D2 receptor = target: T3, D2 receptor (Homo sapiens, UniProt P14416); experiment: CEREP screening, inhibition of control binding; conditions: CEREP Laboratories, read-out: percent of inhibition of the control binding for D2
T3 construct: Cerep (protocol)

5-HT7 receptor = 5-HT7 receptor (Homo sapiens, UniProt P34969); experiment: radioligand binding assay, [3H]-LSD; conditions: read-out: 5-HT7 1 µM ± SEM (% of control specific binding)
Method: as §3

[5] = 60 mg/kg ip, 10 min of the test
[6] = 60 mg/kg ip, 20 min of the test
[7] = 60 mg/kg ip, 30 min of the test
[8] = 60 mg/kg ip, 60 min of the test

Chain of PDE10A (Q9Y233 whole entry, species assumed): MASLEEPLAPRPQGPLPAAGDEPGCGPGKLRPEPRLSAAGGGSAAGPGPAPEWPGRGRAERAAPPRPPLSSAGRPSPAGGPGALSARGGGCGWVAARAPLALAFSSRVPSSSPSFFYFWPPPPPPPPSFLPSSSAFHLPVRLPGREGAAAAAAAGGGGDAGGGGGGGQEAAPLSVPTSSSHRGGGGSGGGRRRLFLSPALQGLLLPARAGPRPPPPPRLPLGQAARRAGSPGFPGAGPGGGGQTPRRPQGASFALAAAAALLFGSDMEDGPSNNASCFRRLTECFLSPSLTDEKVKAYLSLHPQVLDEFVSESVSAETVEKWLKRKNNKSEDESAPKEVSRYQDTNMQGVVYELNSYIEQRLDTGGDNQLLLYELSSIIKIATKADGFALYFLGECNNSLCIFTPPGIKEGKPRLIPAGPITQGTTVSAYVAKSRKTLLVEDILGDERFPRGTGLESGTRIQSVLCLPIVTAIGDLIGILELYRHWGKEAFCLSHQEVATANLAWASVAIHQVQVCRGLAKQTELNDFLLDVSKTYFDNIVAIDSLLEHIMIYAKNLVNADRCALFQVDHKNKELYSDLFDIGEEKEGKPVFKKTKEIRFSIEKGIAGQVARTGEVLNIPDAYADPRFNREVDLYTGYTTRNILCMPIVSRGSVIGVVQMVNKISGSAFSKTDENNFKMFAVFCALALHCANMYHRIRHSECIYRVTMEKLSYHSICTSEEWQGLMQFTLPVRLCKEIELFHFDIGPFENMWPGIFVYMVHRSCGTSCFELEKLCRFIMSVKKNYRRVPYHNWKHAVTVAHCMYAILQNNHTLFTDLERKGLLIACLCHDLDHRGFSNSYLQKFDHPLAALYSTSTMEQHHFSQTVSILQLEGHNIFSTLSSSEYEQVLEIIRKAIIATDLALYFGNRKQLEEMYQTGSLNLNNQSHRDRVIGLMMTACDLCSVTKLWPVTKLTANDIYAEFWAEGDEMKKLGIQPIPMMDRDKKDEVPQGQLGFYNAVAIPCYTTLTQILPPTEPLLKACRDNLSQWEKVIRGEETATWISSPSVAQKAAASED
T3 sequence (P14416 whole entry): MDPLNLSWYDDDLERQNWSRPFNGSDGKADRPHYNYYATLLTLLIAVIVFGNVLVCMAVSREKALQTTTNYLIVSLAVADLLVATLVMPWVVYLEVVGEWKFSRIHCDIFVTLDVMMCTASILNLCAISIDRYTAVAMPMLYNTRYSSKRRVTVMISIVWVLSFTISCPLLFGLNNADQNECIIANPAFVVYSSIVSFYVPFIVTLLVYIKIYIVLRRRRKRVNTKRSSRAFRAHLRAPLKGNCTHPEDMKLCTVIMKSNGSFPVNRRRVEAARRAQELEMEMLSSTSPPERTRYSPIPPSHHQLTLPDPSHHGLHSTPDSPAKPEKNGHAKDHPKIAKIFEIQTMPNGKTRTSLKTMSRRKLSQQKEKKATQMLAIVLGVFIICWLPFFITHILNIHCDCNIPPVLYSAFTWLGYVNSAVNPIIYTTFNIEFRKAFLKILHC
T2 sequence (P28223 whole entry): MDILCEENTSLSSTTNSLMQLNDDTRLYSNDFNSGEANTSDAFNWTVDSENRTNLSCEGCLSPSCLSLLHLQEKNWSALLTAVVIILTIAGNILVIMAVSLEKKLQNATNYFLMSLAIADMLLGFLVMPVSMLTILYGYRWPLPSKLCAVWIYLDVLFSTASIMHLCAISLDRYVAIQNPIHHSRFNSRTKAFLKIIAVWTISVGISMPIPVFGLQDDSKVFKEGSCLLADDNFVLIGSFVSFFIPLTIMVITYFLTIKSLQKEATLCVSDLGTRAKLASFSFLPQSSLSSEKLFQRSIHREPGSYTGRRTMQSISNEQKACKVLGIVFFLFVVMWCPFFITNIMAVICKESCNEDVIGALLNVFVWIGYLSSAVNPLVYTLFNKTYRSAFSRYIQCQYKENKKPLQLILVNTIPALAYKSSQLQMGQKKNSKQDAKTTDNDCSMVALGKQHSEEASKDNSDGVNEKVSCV
Chain of 5-HT7 receptor (P34969 whole entry): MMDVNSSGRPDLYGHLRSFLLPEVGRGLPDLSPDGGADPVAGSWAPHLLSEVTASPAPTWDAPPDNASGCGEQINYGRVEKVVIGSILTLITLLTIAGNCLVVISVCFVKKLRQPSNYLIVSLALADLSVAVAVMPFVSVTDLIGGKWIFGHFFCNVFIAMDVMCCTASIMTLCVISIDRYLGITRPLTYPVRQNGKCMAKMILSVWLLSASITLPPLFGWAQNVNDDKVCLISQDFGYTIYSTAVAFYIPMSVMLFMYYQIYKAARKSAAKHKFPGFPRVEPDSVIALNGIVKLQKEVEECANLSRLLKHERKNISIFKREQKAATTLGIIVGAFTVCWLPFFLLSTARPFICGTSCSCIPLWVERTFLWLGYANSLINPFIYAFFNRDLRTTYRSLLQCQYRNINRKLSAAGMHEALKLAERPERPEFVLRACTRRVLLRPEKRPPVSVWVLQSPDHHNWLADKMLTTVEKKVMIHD

COc1cccc2c1C(=O)c1c(O)c3c(c(O)c1C2=O)C[C@@](O)(C(=O)CO)C[C@@H]3O[C@H]1C[C@H](N)[C@H](O)[C@H](C)O1 [doxorubicin, reference compound]
cell viability (MTT) [1]: significantly decreased cell viability already at much lower concentrations
cell viability (MTT) [2]: significantly decreased cell viability already at much lower concentrations

COc1cccc2c1C(=O)N(CCCCc1nc3ccccc3[nH]1)C2=O [Compound 18, 2-[4-(1H-Benzimidazol-2-yl)butyl]-4-methoxy-1H-isoindole-1,3(2H)-dione]
effect on spontaneous locomotor activity (CD-1 mice [3]; 60 mg/kg): locomotor-suppressing effects were observed
spontaneous locomotor activity (CD-1 mice [3]; [5]): 176.2
spontaneous locomotor activity (CD-1 mice [3]; [6]): 285.0
spontaneous locomotor activity (CD-1 mice [3]; [7]): 659.6
spontaneous locomotor activity (CD-1 mice [3]; [8]): 1875.4
inhibition at 3 µM (PDE10A; 1 h, percentage of inhibition respective to vehicle control (DMSO), 3 µM): 79%
inhibition at 10 µM (PDE10A; 1 h, percentage of inhibition respective to vehicle control (DMSO), 10 µM): 92%
IC50 (PDE10A; SEM of three independent experiments performed in duplicate): 0.886 ± 0.017 µM
melting point: 69 to 70 °C
inhibition at 1 µM (5-HT1A receptor): 28 ± 3%
inhibition at 1 µM (5-HT2A receptor): 8.8%
effect on AMPH-induced hyperactivity (CD-1 mice [4]; 60 mg/kg ip): decreased AMPH-induced hyperactivity, but only for the first 10 min after injection
effect on AMPH-induced hyperactivity (CD-1 mice [4]; lower doses (data not shown)): did not change the stimulating effect of AMPH
cell viability (MTT) [1]: Decreasing cell viability (HepG2/SHSY-5Y) is observed only at higher concentrations
cell viability (MTT) [2]: Decreasing cell viability (HepG2/SHSY-5Y) is observed only at higher concentrations
inhibition at 1 µM (D2 receptor): 0%
inhibition at 1 µM (5-HT7 receptor): 3 ± 1%

COc1ccc(Cc2nccc3cc(OC)c(OC)cc23)cc1OC [Papaverine, papaverine]
spontaneous locomotor activity (CD-1 mice [3]; 40 mg/kg ip, 10 min of the test): 43.1
spontaneous locomotor activity (CD-1 mice [3]; 40 mg/kg ip, 20 min of the test): 170.2
spontaneous locomotor activity (CD-1 mice [3]; 40 mg/kg ip, 30 min of the test): 571.9
spontaneous locomotor activity (CD-1 mice [3]; 40 mg/kg ip, 60 min of the test): 2260.8
spontaneous locomotor activity (CD-1 mice [3]; [5]): 7.1
spontaneous locomotor activity (CD-1 mice [3]; [6]): 24.6
spontaneous locomotor activity (CD-1 mice [3]; [7]): 47.5
spontaneous locomotor activity (CD-1 mice [3]; [8]): 200.4
effect on spontaneous locomotor activity (CD-1 mice [3]; 40 and 60 mg/kg): locomotor-suppressing effects were observed
PDE10A [%] 3 µM (PDE10A; percentage of inhibition respective to vehicle control (DMSO), 3 µM): 54%
PDE10A [%] 10 µM (PDE10A; percentage of inhibition respective to vehicle control (DMSO), 10 µM): 75%
effect on AMPH-induced hyperactivity (CD-1 mice [4]; 40 and 60 mg/kg ip): dose-dependently antagonized this response
effect on AMPH-induced hyperactivity (CD-1 mice [4]; lower doses (data not shown)): did not change the stimulating effect of AMPH
